Test results reported in US5173494A, “Specific inhibition of angiotensin-II binding to angiotensin-II receptor subtype-2” (E. I. du Pont de Nemours and Company, priority 1991, dated 1992).

How the values were obtained:
[1] = system: potassium-stimulated release of ACh in entorhinal cortex; conditions: in vitro, entorhinal cortex from rat brain; cited from earlier work
[2] = system: mouse habituation (light to dark compartment latency); conditions: cited from earlier work
[3] = system: renin-induced disruption of passive avoidance retention; experiment: Renin-disrupted passive avoidance retention; assay type: in vivo, male Sprague-Dawley rats; conditions: rats; for prevention of renin-induced amnesia: co-administered with renin, IVT
Procedure: Experimentally naive male Sprague-Dawley rats […] (Charles River Breeding Laboratories, Kingston, N.Y.), weighing between 175 to 200 gm were used. The animals were housed four per cage (45.0 L×20.0 H×26.0 W cm) with free access to food and water. They were maintained on a 12 h light/dark cycle (lights on 0600 h) and at a room temperature of 22±1° C. with relative humidity of 50±10%.
The experimental sessions were conducted in a two-compartment passive avoidance box. One compartment, made of clear plastic with a perforated clear plastic floor, measured 21(L)×24.5(H)×17(W) cm and was illuminated with a 60 watt incandescent light bulb placed 36 cm above the floor. The other compartment, made of black plastic, measured 30.5(L)×20.3(H)×[…] with a floor made of 4 mm stainless steel rods spaced 1.2 cm apart. A grid floor shocker (Coulbourn Instruments) was connected to the steel rods and provided scrambled footshock. The two compartments were separated by a solenoid-operated slide door (Lafayette Instrument Co., Lafayette, Ind.). An electronic counter (Coulbourn Instruments), triggered by the opening or closing of the slide door, recorded acquisition and retention latencies (latencies were defined as the time it took an animal to enter the dark compartment).
Passive avoidance training began by placing the rat into the clear compartment of the two-compartment passive avoidance box. Following a 10 sec delay, the slide door to the dark compartment was raised. Once the rat moved completely into the dark compartment (all four paws on the shock grid floor) the slide door was lowered, and after a 10 sec delay, a 1.0 mA shock was applied to the grid floor for three sec. A second three sec shock was delivered after an additional 10 sec delay. The rats were immediately removed from the dark compartment and returned to their home cage. A retention test was given 24 h later. It proceeded in the same manner as the training session except that no shock was applied to the grid floor when the rats were provided access to the dark compartment for a maximum of 300 sec.
All drugs were administered IVT 60 minutes prior to acquisition training in a volume of 5 μl. Doses are expressed as the free base weight of each compound.

[4] = system: scopolamine-induced PA amnesia; conditions: three times per day at 1, 3 and 10 mg/kg PO; cited from earlier work
[5] = system: scopolamine-induced impairment of eight arm radial maze performance; conditions: 3 mg/kg IP; cited from earlier work
uphill avoidance = conditions: mice, acute, 30 mg/kg PO; cited from earlier work
[6] = system: ACh in the striatum and hypothalamus; conditions: acute or repeated administration; cited from earlier work
[7] = system: renin-induced amnesia in a PA task; experiment: PA task after IVT renin (own laboratory); assay type: in vivo
[8] = system: light/dark habituation performance; conditions: subchronic treatment; cited from earlier work
[9] = system: renin-induced avoidance disruption; conditions: cited from earlier work
[10] = system: memory of previously learned tasks; conditions: in vivo; cited from earlier work
[11] = system: retention of a passive avoidance (PA) response; conditions: rats, dorsal neostriatum injection; cited from earlier work
[12] = system: AII in cerebrospinal fluid (CSF); conditions: renin IVT; increased from 40; cited from earlier work

In the case of “[1-sarcosine, 8-threonine]angiotensin-II”, the “antagonism of AII effect on ACh release” value [1] is given as “antagonized”.

In the case of `Cc1cc(Cn2cnc3c2CC(C(=O)O)N(C(=O)C(c2ccccc2)c2ccccc2)C3)ccc1N` (stereo not shown) [EXP655, 1-(4-amino-3-methylphenyl)methyl-5-diphenylacetyl-4,5,6,7-tetrahydro-1H-imidazo[4,5-c]pyridine-6-carboxylic acid], the “initial latency to move from light to dark compartment” value ([2]; 10.0 ng kg^-1 i.p. b.d., days 2 and 3, vs vehicle) is listed as “decrease in the initial latency to move from the light to dark compartment”, the “scopolamine-induced impairment in mice treated with EXP655” value ([2]; EXP655 10.0 ng kg^-1 i.p., scopolamine 0.25 mg kg^-1 i.p., day 6) is listed as “not detected” and the “prevention of renin-induced amnesia” value [3] is listed as “less effective in preventing the amnesia”.

With `CCCc1nc(C(F)(F)F)c(CO)n1Cc1ccc(-c2ccccc2-c2nnn[nH]2)cc1` [Compound D, 2-n-propyl-5-hydroxymethyl-1-[(2'-(1H-tetrazol-5-yl)biphenyl-4-yl)methyl]-4-trifluoromethylimidazole] the “prevention of renin-induced amnesia” value [3] was “protected against amnesia”.

In the case of `CCCc1nc(C(F)(F)F)c(C(=O)O)n1Cc1ccc(-c2ccccc2-c2nn[nH]n2)cc1` [Compound C, 2-n-propyl-1-[(2'-(lH-tetrazol-5-yl)biphenyl-4-yl)methyl]-4-trifluoromethylimidazole-5-carboxylic acid], the “prevention of renin-induced amnesia” value [3] is reported as “protected against amnesia”.

For `CCOC(=O)C(CCc1ccccc1)NC(C)C(=O)N1CC2(CC3CCC2CC3)CC1C(=O)O` (stereo not shown) [Hoe 288], the “effect on scopolamine-induced PA amnesia” value [4] is given as “partially reversed the amnesia”, the “effect of muscarinic receptor blockade on performance” value [5] is given as “partially antagonized the effects of muscarinic receptor blockade on performance” and the “performance during retention testing, uphill avoidance” value (uphill avoidance) is given as “improved performance during retention testing”. The “ACh in the striatum and hypothalamus” value [6] was “significant decrease in ACh”.

For `C[C@H](CS)C(=O)N1CCC[C@H]1C(=O)O` [captopril], the “prevention of renin-induced amnesia in a PA task” value ([7]; IVT administration) is listed as “prevented”, the “rate of acquisition of light/dark habituation performance” value [8] is listed as “increased the rate of acquisition” and the “prevention of renin-induced avoidance disruption” value ([9]; IVT, prior to the renin injection) is listed as “prevented the renin-induced avoidance disruption”.

In the case of `NCCCC[C@H](OP(=O)(O)CCCCc1ccccc1)C(=O)N1CCC[C@H]1C(=O)O` [SQ 29852], the “effect on anticholinergic effect on performance” value [10] is given as “ameliorate, at least in part, an anticholinergic effect on performance” and the “effect on memory of previously learned tasks” value [10] is given as “protective effects on memory of previously learned tasks”.

In the case of `NC(=O)[C@@H]1CCCN1C(=O)[C@H](Cc1cnc[nH]1)NC(=O)[C@@H]1CCC(=O)N1` [thyrotropin releasing hormone], the “effect on retention of a PA response” value [11] is given as “had no effect”.

In the case of lysine-8-vasopressin, the “effect on retention of a PA response” value [11] is given as “had no effect”.

In the case of “AII: Angiotensin-II (AII), a circulating hormone, now thought to act as a neuropeptide in the central nervous system (DRVYIHPF; Angiotensin-2; UniProt P01019 25-32, looked up)”, the “basal levels of ACh release” value [1] is listed as “without effects on basal levels”, the “potassium-stimulated release of ACh” value [1] is listed as “reduced potassium-stimulated release of ACh” and the “effect on retention of a PA response” value [11] is listed as “disruption in retention of a PA response”.

For `CN1[C@@H]2C[C@@H](OC(=O)[C@H](CO)c3ccccc3)C[C@H]1[C@@H]1O[C@@H]12` [scopolamine], the “performance following scopolamine in vehicle-treated mice (initial latency)” value ([2]; scopolamine 0.25 mg kg^-1 i.p., day 6) is listed as “increase in the initial latency”.

B1: renin: Renin (Sigma Chemicals), a stimulator of endogenous AII biosynthesis (protein, UniProt P00797 67-406, looked up)
Renin: LTLGNTTSSVILTNYMDTQYYGEIGIGTPPQTFKVVFDTGSSNVWVPSSKCSRLYTACVYHKLFDASDSSSYKHNGTELTLRYSTGTVSGFLSQDIITVGGITVTQMFGEVTEMPALPFMLAEFDGVVGMGFIEQAIGRVTPIFDNIISQGVLKEDVFSFYYNRDSENSQSLGGQIVLGGSDPQHYEGNFHYINLIKTGVWQIQMKGVSVGSSTLLCEDGCLALVDTGASYISGSTSSIEKLMEALGAKKRLFDYVVKCNEGPTLPDISFHLGGKEYTLTSADYVFQESYSSKKLCTLAIHAMDIPPPTGPTWALGATFIRKFYTEFDRRNNRIGFALAR
For B1, the “amnesia in a PA task” value ([7]; renin administered IVT) is given as “produces a dose-related amnesia”, the “memory deficit produced by renin” value ([3]; renin injected IVT) is given as “produces memory deficit in rats” and the “AII in cerebrospinal fluid after renin” value [12] is given as “about 5000 fmol per mL”. For the same molecule, the “effect on avoidance learning” value ([9]; renin into lateral ventricle (IVT)) was “disruption of avoidance learning”.
